# Reference: patent publication US10976312B2, “Compositions and methods for capture of cellular targets of bioactive agents” (Promega Corporation, priority 2012, dated 2021)
# “And” between values parts separate entries of the source, which are not always exact repeats. Equal entries are not always repeated.
# Assays:
# [1] = target: T1, NANOLUC-p38 alpha fusion protein (Homo sapiens, UniProt Q16539); assay: Pull-down of NANOLUC-p38 alpha fusion from living HEK293 cells onto HALOTAG protein beads (Example 3); type: cell-based
# T1 construct: expressed in transfected cells; host or cells: HEK293
# T1 sequence (Q16539 whole entry, the tested form may be a part): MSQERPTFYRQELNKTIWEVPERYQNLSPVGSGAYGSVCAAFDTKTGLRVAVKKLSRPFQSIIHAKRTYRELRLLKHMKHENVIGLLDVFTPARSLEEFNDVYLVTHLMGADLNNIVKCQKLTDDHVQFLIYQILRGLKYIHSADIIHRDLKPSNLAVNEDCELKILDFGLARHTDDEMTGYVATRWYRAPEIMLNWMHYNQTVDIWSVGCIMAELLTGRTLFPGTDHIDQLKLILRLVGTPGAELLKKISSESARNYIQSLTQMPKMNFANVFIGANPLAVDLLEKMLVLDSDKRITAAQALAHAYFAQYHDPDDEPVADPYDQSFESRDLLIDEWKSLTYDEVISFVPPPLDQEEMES
# Method: HEK293 cells in wells of a 96-well plate were transfected using PEI with plasmid DNA encoding NANOLUC-p38 fusion. Twenty-four hours post-transfection, cells were incubated with a final concentration of 10 μM PBI-4834 while control cells were not treated with the conjugated drug. Following equilibrium binding of 2 hours, the media was removed, cells were quickly washed with PBS and lysed in a detergent-based lysis buffer for 10 minutes. The cell lysates were then transferred to wells of a 96-well plate which contained 0.5 μl settled paramagnetic HALOTAG protein beads (Promega Corp.) and incubated with shaking for 15-45 minutes. Following binding, the unbound fraction was removed and the HALOTAG protein paramagnetic beads were washed. 150 uM unconjugated BIRB796 was then added and the captured NANOLUC-p38 alpha fusion was specifically released from the beads by competition with the unconjugated BIRB796 for 60 minutes. The released NANOLUC-p38 alpha fusion protein (+PBI-4834) and control (−PBI4834) was detected using NANOGLO luciferase reagent (Promega Corp.).
# [2] = target: T1, NANOLUC-p38 alpha fusion protein; assay: Pull-down of NANOLUC-p38 alpha fusion from HEK293 cell lysates (Example 5); type: binding; details: 1 μM conjugate, HEK293 cell lysate
# Method: In this example, BIRB-chloroalkane conjugate (PBI-4834) and BIRB chloroalkane conjugate containing a cleavable linker (PBI-5131) were utilized to pull-down a NANOLUC-p38 alpha fusion protein from HEK293 cell lysates. Lysate of cells expressing NANOLUC-p38 fusion were incubated with 1 μM PBI-4834 or PBI-5131 (final concentration) while control lysates were not treated with the conjugated drugs. Following equilibration binding for 2 h, the lysates were transferred to wells of a 96-well plate containing 0.5 μl settled paramagnetic HALOTAG protein beads and incubated with shaking for 45 min. Following binding the unbound fraction was removed, the HALOTAG protein paramagnetic beads were washed 3×, and the captured NANLUC-p38 alpha fusion specifically released from the beads by one of two methods: • 1. 150 μM unconjugated BIRB796 was used to compete for binding with the conjugated BIRB796 on the NANOLUC-p38 alpha fusion for 60 min. • 2. The NANOLUC-p38 alpha fusion was rapidly released through 10 min chemical cleavage of the chloroalkane linker with 10 mM of sodium hydrosulfite (PBI-5131 is a chloroalkane cleavable linker).
# p38 alpha = target: T2, p38 alpha (Homo sapiens, UniProt Q16539); assay: Endogenous target pull-down from HEK293 cells, western blot and mass spec (Example 8); type: cell-based; details: 10 uM conjugate, listed as BIRB-CA
# T2 construct: isolate, e.g., pull-down, endogenous targets from cells; endogenous in cells; host or cells: HEK293
# T2 sequence (Q16539 whole entry): as the sequence (Q16539 whole entry, the tested form may be a part) above
# Method: HEK293 cells were plated in a 6 well plate (2.5×10^5 cells). 48 hours post plating, a final concentration of 10 uM of BIRB-chloroalkane (PBI-4834) was added to 2 wells while control cells were not treated with the drug conjugate. Following equilibrium binding for 2 h, the media was removed, and the cells were quickly washed with PBS and lysed in detergent-based lysis buffer for 10 min. Cell lysates were then transferred to an Eppendorf® tube containing 12.5 ul of settled paramagnetic HALOTAG protein beads and incubated with shaking for 15 min. Following binding, the unbound fraction was removed, the HALOTAG protein paramagnetic beads washed 3×, and the captured targets specifically released from the beads by competition with 150 μM unconjugated BIRB796 for 60 min. The released targets were subjected to mass spec analysis as well as western blot analysis using an anti-p38 alpha antibody (Abcam).
# [3] = target: T3, NANOLUC-p38 fusion protein (Homo sapiens, UniProt Q16539); assay: HALOTAG dimer / HALOLINK plate capture of NANOLUC-p38 from cell lysates (Example 2); type: binding; details: cells treated with drug, listed as BIRB-chloroalkane
# T3 construct: expressed in transfected cells
# T3 sequence (Q16539 whole entry, the tested form may be a part): as above
# Method: Different amounts of a HALOTAG protein dimer (dimer of SEQ ID NO: 1) were added to cell lysates expressing a NANOLUC-p38 fusion protein (e.g., reporter/cellular-target fusion) which have or have not been treated with BIRB-chloroalkane (e.g., bioactive-agent/capture-ligand conjugate) as shown in Table 1. After 15 minute incubation, the samples were placed into wells of white, 96-well polystyrene plates activated with HALOTAG ligand (HALOLINK plates; Promega Corp.) and further incubated for 45 minutes. The wells were then washed PBS+0.05% Tween-20 (PBST). Then, 50 ul PBS followed by 50 ul of NANOGLO luciferase detection reagent was added to the wells, and luminescence measured.
# Table 2 indicates differences in luminescence in samples with and without HALOTAG dimer (e.g., dimer of SEQ ID NO: 1) that indicate specific pull-down of the NANOLUC-p38 fusion protein.
compound,measurement,setting,value
CC(C)(C)c1cc(NC(=O)Nc2ccccc2)n(-c2cccc(CNC(=O)CNC(=O)OCCOCCOCCOC(=O)NCCOCCOCCCCCCCl)c2)n1 [PBI-4834],expressed fusion specifically captured to the beads,"[1]; 10 μM conjugate, HEK293 cells, HALOTAG protein beads",1%
same,signal over background of capture,[1]; within 15 minutes of capture on HALOTAG protein beads,high signal over background
same,pull-down efficiency of NANOLUC-p38 alpha,[2],significantly higher compared to PBI-5131
same,pull-down of endogenous p38 alpha,p38 alpha,specific pull down of p38
same,luminescence (captured NANOLUC-p38),[3]; 2 ug/well HALOTAG dimer,236900 and 397958 and 431167
same,luminescence (captured NANOLUC-p38),[3]; 6 ug/well HALOTAG dimer,401205 and 538956 and 596504
same,luminescence (captured NANOLUC-p38),[3]; 8 ug/well HALOTAG dimer,395510 and 526903 and 610628
same,luminescence (captured NANOLUC-p38),[3]; No HALOTAG dimer,278085 and 275690 and 443682
